Test results taken from patent publication US12349706B2, “Compositions and methods related to excipients and cannabinoid formulations” (Natural Extraction Systems, LLC, priority 2020, dated 2025).

Columns and labels:
Type in all cases: in vivo
[1] = test system: Sabra mice; experiment: Zymosan-induced paw pain, Von Frey hair aesthesiometer; conditions: zymosan in left hind paw, 300 milligrams formulation (cannabinoid in propylene glycol, xylitol solid phase) in 15 milliliters water, oral gavage
Method: (§1) The activity of formulations set forth in this disclosure is assayed in Sabra mice. 300 milligrams of a formulation is combined with 15 milliliters of water and administered by oral gavage. Each formulation comprises a liquid phase that contains propylene glycol and a solid phase that contains xylitol. The liquid phase contains a cannabinoid selected from CBD, THC, Δ8-THC, CBG, CBDV, THCV, Δ8-THCV, CBGV, CBC, CBN, tetrahydrocannabiphorol, perrottetinene, nabilone, parahexyl, HUM-217, and HU-331, which is dissolved in the propylene glycol, and controls lack any cannabinoid.
(§2) Zymosan is injected into the left hind paws of each mouse to induce pain, inflammation, and tumor necrosis factor (“TNF”) signaling. Inflammatory paw swelling is measured with a caliper. Pain is measured with a Von Frey hair aesthesiometer. Plasma TNF is measured […].

[2] = test system: Sabra mice; experiment: Zymosan-induced inflammatory paw swelling, measured with a caliper; conditions: zymosan in left hind paw, paw swelling by caliper, 300 milligrams formulation (cannabinoid in propylene glycol, xylitol solid phase) in 15 milliliters water, oral gavage
Method: as §1, §2

[3] = test system: tumor necrosis factor (“TNF”) signaling; experiment: Plasma TNF after zymosan injection, measured by HPLC; conditions: Sabra mice, zymosan in left hind paw, 300 milligrams formulation (cannabinoid in propylene glycol, xylitol solid phase) in 15 milliliters water, oral gavage
Method: as §1, §2

| Compound | reduction in pain relative to controls [1] | reduction in inflammation relative to controls [2] | reduction in TNF signaling relative to controls [3] |
| --- | --- | --- | --- |
| CCCCCc1cc(O)c2c(c1)OC(C)(CCC=C(C)C)C=C2 (stereo not drawn) [CBC] | no detectable effect | no detectable effect | no detectable effect |
| C=C(C)[C@@H]1CCC(C)=C[C@H]1c1c(O)cc(CCC)cc1O [CBDV] | robust reduction | robust reduction | robust reduction |
| C=C(C)[C@@H]1CCC(C)=C[C@H]1c1c(O)cc(CCCCC)cc1O [CBD] | robust reduction | robust reduction | robust reduction |
| CCCCCc1cc(O)c(C/C=C(\C)CCC=C(C)C)c(O)c1 [CBG] | modest reduction | modest reduction | modest reduction |
| CCCCCc1cc(O)c2c(c1)OC(C)(C)c1ccc(C)cc1-2 [CBN] | modest reduction | modest reduction | modest reduction |
| C=C(C)[C@@H]1CCC(C)=C[C@H]1C1=C(O)C(=O)C(CCCCC)=CC1=O [HU-331] | robust reduction | robust reduction | robust reduction |
| CCCc1cc(O)c2c(c1)OC(C)(C)[C@@H]1CCC(C)=C[C@@H]21 [THCV] | modest reduction | modest reduction | modest reduction |
| CCCCCc1cc(O)c2c(c1)OC(C)(C)[C@@H]1CCC(C)=C[C@@H]21 [THC] | modest reduction | modest reduction | modest reduction |
| CCCCCCC(C)(C)c1cc(O)c2c(c1)OC(C)(C)C1CCC(=O)CC21 (stereo not drawn) [nabilone] | modest reduction | modest reduction | modest reduction |
| CCCCCCc1cc(O)c2c(c1)OC(C)(C)C1=C2CC(C)CC1 (stereo not drawn) [parahexyl] | modest reduction | modest reduction | modest reduction |
| CC1=C[C@H]2c3c(O)cc(CCc4ccccc4)cc3OC(C)(C)[C@H]2CC1 [perrottetinene] | modest reduction | modest reduction | modest reduction |
| CCCCCCCc1cc(O)c2c(c1)OC(C)(C)[C@@H]1CCC(C)=C[C@@H]21 [tetrahydrocannabiphorol] | modest reduction | modest reduction | modest reduction |
| CCCc1cc(O)c2c(c1)OC(C)(C)[C@@H]1CC=C(C)C[C@@H]21 [Δ8-THCV] | modest reduction | modest reduction | modest reduction |
| CCCCCc1cc(O)c2c(c1)OC(C)(C)[C@@H]1CC=C(C)C[C@@H]21 [Δ8-THC] | modest reduction | modest reduction | modest reduction |
